# Data taken from patent US9556417B2, “Reprogramming of cells to a new fate” (The Scripps Research Institute, priority 2010, dated 2017).
# B1: Wnt5a: Wnt-5A class, non-canonical Wnt signaling growth factor (protein, UniProt P41221 62-380, looked up)
# Protein Wnt-5a: IIGAQPLCSQLAGLSQGQKKLCHLYQDHMQYIGEGAKTGIKECQYQFRHRRWNCSTVDNTSVFGRVMQIGSRETAFTYAVSAAGVVNAMSRACREGELSTCGCSRAARPKDLPRDWLWGGCGDNIDYGYRFAKEFVDARERERIHAKGSYESARILMNLHNNEAGRRTVYNLADVACKCHGVSGSCSLKTCWLQLADFRKVGDALKEKYDSAAAMRLNSRGKLVQVNSRFNSPTTQDLVYIDPSPDYCVRNESTGSLGTQGRLCNKTSEGMDGCELMCCGRGYDQFKTVQTERCHCKFHWCCYVKCKKCTEIVDQFVCK
# B2: BMP4: cardioinductive growth factor, member of the TGF-β superfamily (protein, UniProt P12644 293-408, looked up)
# Bone morphogenetic protein 4: SPKHHSQRARKKNKNCRRHSLYVDFSDVGWNDWIVAPPGYQAFYCHGDCPFPLADHLNSTNHAIVQTLVNSVNSSIPKACCVPTELSAISMLYLDEYDKVVLKNYQEMVVEGCGCR
# B3: Dkk-1: Wnt inhibitor Dkk-1 (Dickkopf protein 1) (protein, UniProt O94907 32-266, looked up)
# Dickkopf-related protein 1: TLNSVLNSNAIKNLPPPLGGAAGHPGSAVSAAPGILYPGGNKYQTIDNYQPYPCAEDEECGTDEYCASPTRGGDAGVQICLACRKRRKRCMRHAMCCPGNYCKNGICVSSDQNHFRGEIEETITESFGNDHSTLDGYSRRTTLSSKMYHTKGQEGSVCLRSSDCASGLCCARHFWSKICKPVLKEGQVCTKHRRKGSHGLEIFQRCYCGEGLSCRIQKDHHQASNSSRLHTCQRH
# B4: Activin A: a TGFβ/Activin/Nodal family member growth factor (protein, UniProt P08476 311-426, looked up)
# Inhibin beta A chain: GLECDGKVNICCKKQFFVSFKDIGWNDWIIAPSGYHANYCEGECPSHIAGTSGSSLSFHSTVINHYRMRGHSPFANLKSCCVPTKLRPMSMLYYDDGQNIIKKDIQNMIVEECGCS
# modifications: Inhibin beta A chain
# Legend:
# R1 ES cells [1] = assay: Serum-free monolayer cardiac differentiation of ES cells, beating colonies; type: cell-based, mouse; details: for cardiac differentiation / percentage of beating colonies: early treatment window; for number of beating colonies: treatment days 5 through 7
# Experimental: Having identified the first serum-free monolayer condition for cardiac differentiation of ES cells, we sought to test its efficacy as a platform to discover regulators of cardiomyogenesis. A collection of approximately 200 small molecules and growth factors reported to be influential in developmental processes were assembled. R1 ES cells were grown and plated for differentiation on Matrigel in 24-well plates using the media and growth factors described above. The screening collection was then added and removed from each well at specific time points in order to account for different developmental time windows. The collection was screened at days 0-2, 2-5, and 5-7.
# (§1) Cells are plated at a density of 200,000 cells/well of a 6-well plate in 2.5 ml of ESGM. 6-well plates are coated overnight at 4° C. with 1 ml of Matrigel (BD Bioscience) diluted 50× from stock concentration. 24 hours after plating, or after sufficient colony size was achieved, cells are switched into chemically defined medium (CDM) and treated with 4 uM BIO (Calbiochem) and 20 ng/ml BMP-4 (R&D). CDM contains RPMI 1640, 0.5×N2, 1×B27 (without Vitamin A), 0.5× Glutamax, 0.55 mM beta-mercaptoethanol, 1× non-essential amino acids, 1× nucleosides. At Day 2, medium is changed, and again CDM containing 4 uM BIO with 20 ng/ml BMP-4 is added to the cells. At Day 5, cells are washed once with PBS and medium is changed to CDM containing 100 ng/ml Dkk-1 (R&D). At Day 7, medium is changed, and again CDM containing 100 ng/ml Dkk-1 is added to the cells. At Day 10, cells are trypsinized (0.05% trypsin) (Approximately 5 minutes at 37° C., or until cells begin to detach) and replated onto gelatin coated 6-well plates in CDM with no additional growth factors. By this time, the cells will have formed tight colonies that will be difficult to disrupt (Supplementary FIG. 2b). […] The trypsin is used primarily to detach the cells rather than to dissociate them to a single cell suspension. It is preferable for the colonies to remain intact. The trypsin is briefly quenched with MEF media, cells are centrifuged, and resuspended in CDM for plating. Medium is refreshed as needed to remove dead cells and debris (every 1 to 2 days).
# R1 ES cells [2] = assay: QRT-PCR of markers in differentiating ES cells; type: cell-based, mouse; details: for expression of Brachyury T, Flk-1, GATA-4 and MESP1: treated day 0-2, harvested day 4.5; for expression of cardiac specific markers: treatment days 5-7, assessed at day 8
# Experimental: To further analyze the mechanism of action of the cardiogenic effect seen with these molecules, QRT-PCR was carried out on cells treated from day 0-2 and harvested at day 4.5.
# QRT-PCR was carried out to observe the induction of cardiomyogenesis at the transcript level. At day 5, when A83-01 treatment begins, the predominant state is that of a developed primitive streak type population that is yet to display robust expression of markers of cardiac precursors such as Nkx2.5, Isl-1, and c-kit.
# Total RNA from each sample was prepared from 5×10^4 cells using RNeasy mini kit (Qiagen). Reverse transcription was carried out by using Reverse Transcription System (Promega) and PCR performed using PCR Super Mix (Invitrogen).
# R1 mESCs = assay: Serum-free monolayer cardiac differentiation of ES cells, αMHC immunostaining at day 10; type: cell-based, mouse; details: for effect on cardiac specification (αMHC staining at day 10): factor given in single treatment windows; for cells staining for αMHC: treatment in the first window, day 10
# Source text: While cellular differentiation is a fluid process, its study can be simplified by defining stages of differentiation. In order to identify conditions conducive to cardiomyocyte differentiation, we employed a matrix strategy in which cells were differentiated for 10 days encompassing 4 treatment windows (followed by a period of maturation in the final procedure). The stages identified for the current study were mesendoderm, mesoderm, cardiac precursor, early cardiomyocyte, and mature cardiomyocyte. Shown in FIG. 24 is a schematic representing the transition from ES cells to cardiomyocytes, including markers for each cell type defined and the treatments used to stimulate each transition.
# We began by identifying a minimal serum-free condition in which approximately 1% of cells would express αMHC (alpha-myosin heavy chain) after 10 days of culture. Combinations of medium components and plate coatings were tested in parallel, with the most permissive and consistent condition being a modified chemically defined N2/B27 medium on Matrigel coated plates (see Methods). Prior to differentiation, ES cells were maintained in a pluripotent state on MEFs and with LIF. At day −1, the cells were trypsinized and replated on Matrigel coated plates in LIF supplemented medium, allowing for better cell survival and more robust initial colony formation. In one day, a sufficient colony size is achieved allowing survival in serum-free medium (FIG. 25).
# From a literature search, we identified growth factors, cytokines and small molecules reported to influence cardiac differentiation, such as activators and inhibitors of BMP, TGF-β/Nodal, Hedgehog, Wnt, and Notch pathways and tested each for their ability to induce cardiomyogenesis at each time window. For example, to test Dkk-1 in the second window, cells were in basal medium for days 0-2, treated with Dkk-1 for days 2-5, then cultured in basal medium until day 10 before immunofluorescence scoring. Positive regulators of cardiac specification at each stage were therefore identified by their ability to induce alpha-myosin heavy chain (αMHC) expression at day 10, as assessed by immunostaining.
# as §1
# Cells were fixed in 4% paraformaldehyde (Sigma) for 15 minutes, and stained in 0.3% Triton (Sigma) containing 5% donkey serum (Jackson ImunoResearch). Antibodies were used at dilutions of MF20 [Developmental Studies Hybridoma Bank (DSHB)] […]
# [3] = test system: mouse embryonic fibroblasts (MEFs); assay: Direct cardiac reprogramming of fibroblasts, contracting patch/colony counts; type: cell-based
# Source text: Having successfully initiated the early cardiogenic program in MEFs, we next sought to induce robust activation of mid-stage cardiac gene expression and to ultimately generate spontaneously contracting patches of cardiac cells, a hallmark of terminal differentiation that is easily observed and quantified. To this end, we treated three-factor transduced MEFs with chemically defined media (CDM) as well as cytokines and small molecules that might enhance cardiogenesis by regulating TGFβ, bone morphogenetic protein (BMP), Hedgehog, Wnt, or Notch pathway activity. Treatments were done individually and in combination, and at different times during the reprogramming process. Despite the general unsuitability of the resulting protocol for iPSC generation, we also explored whether small-molecule inhibition of JAK-STAT (Janus kinase-signal transducer and activator of transcription), PI3K (phosphatidylinositol 3-kinase), or Wnt signalling during the early stages of the protocol might boost the effectiveness of cardiomyogenesis by preventing even a small number of iPSC intermediates from forming. Finally, we experimented with a more gradual transition between different media by lowering FBS concentration step-wise in increments of 1-4% over 3-6 days (immediately prior to switching to CDM). […] During this initial nine-day period, the small-molecule JAK inhibitor JD is continuously kept in the media at a concentration of 0.5 μM. From day nine onwards, the cells are cultured in CDM, with the cardioinductive growth factor BMP4 (Snyder, A. et al., J Cell Biochem 93, 224-32 (2004)) being added at 20 ng/ml for the first five days (FIG. 1b).
# All MEFs (129S2/SvPasCrlf) were derived according to WiCell protocols (https://www.wicell.org/index.php?option=com_docman&task=doc_download&gid=687). TTFs were a kind gift of Dr. Hans Schöler. Secondary MEFs were derived as previously described (Wernig, M. et al., Nat Biotechnol 26, 916-24 (2008)). All results were initially obtained and confirmed with the Nebulette-LacZ MEFs; to ensure reproducibility and minimize inter-experimental variation, reported results almost exclusively derive from experiments utilizing secondary dox-inducible MEFs using the optimum induction period. MEFs were initially passaged on gelatin-coated (0.1% for 2 hours at 37° C.) tissue culture dishes in DMEM supplemented with 10% FBS, 2 mM Glutamax and 0.1 mM NEAA (all components from Invitrogen, Carlsbad, Calif.). Prior to viral transduction, cells were seeded onto Matrigel (BD Biosciences, Franklin Lakes, N.J.) or Geltrex (Invitrogen)-coated plates (1:40, overnight at 4° C.) at 3.5×10^4 cells per well of a six well plate (7×10^4 cells for TTFs) in the same media. […]
molecule,measurement,setting,value
COC(=O)C1=C(C)NC(C)=C([N+](=O)[O-])C1c1ccccc1C(F)(F)F (centres unmarked) [BayK 8644],cardiac differentiation / percentage of beating colonies,R1 ES cells [1],strong positive stimulator of cardiac differentiation
same,"expression of Brachyury T, Flk-1, GATA-4 and MESP1",R1 ES cells [2],increased
"Cc1cccc(-c2nn(C(=S)Nc3ccccc3)cc2-c2ccnc3ccccc23)n1 [A83-01, 3-(6-Methyl-2-pyridinyl)-N-phenyl-4-(4-quinolinyl)-1H-pyrazole-1-carbothioamide]",number of beating colonies,R1 ES cells [1],induced a higher number of beating colonies
same,expression of cardiac specific markers,R1 ES cells [2],induced higher levels of expression
CCCC(=O)Nc1ncnc2c1ncn2[C@@H]1O[C@@H]2COP(=O)(O)O[C@H]2[C@H]1OC(=O)CCC [dibutyryl cAMP],cardiac differentiation / percentage of beating colonies,R1 ES cells [1],increased the percentage of beating colonies
same,"expression of Brachyury T, Flk-1, GATA-4 and MESP1",R1 ES cells [2],increased
"O=C1Nc2cc(Br)ccc2/C1=C1/Nc2ccccc2/C1=N\O [BIO, 6-bromoindirubin-3′-oxime]",effect on cardiac specification (αMHC staining at day 10),R1 mESCs,increase the percentage of αMHC staining
same,optimal dosage,R1 mESCs; first window (day 0-2),4 µM
same,cells staining for αMHC,R1 mESCs,approximately 20%
"C[C@H]1O[C@@H](n2cnc3c(N)ncnc32)C[C@@H]1OP(=O)(OCCSC(=O)C(C)(C)C)OCCSC(=O)C(C)(C)C [2′,5′-dd-3′-AMP-bis(t-Bu-SATE)]",cardiac differentiation / percentage of beating colonies,R1 ES cells [1],decrease in the percentage of beating clusters
B1,decrease in overall beating efficiency,R1 ES cells [1]; same stage as BayK 8644,20%
B2,"contracting patches per 100,000 MEFs plated (mean)","[3]; n=6, JI1 0.5 μM first nine days, BMP4 20 ng/ml five days","149±13 patches per 100,000 MEFs plated"
same,increase in formation of contracting patches,"[3]; three-factor transduced MEFs, BMP4 20 ng/ml for first five days in CDM",~150 fold
same,optimal concentration,R1 mESCs; first and/or second treatment windows,20 ng/mL
same,cells staining for αMHC,R1 mESCs,approximately 20%
B3,colonies developing a beating phenotype,"R1 ES cells [1]; BMP-4 + BIO then Dkk-1, replated on gelatin, basal medium, after 6 days of culture",~50%
same,increase in efficiency of cardiac differentiation,"R1 mESCs; after BMP-4 and BIO for 5 days, treated in third or fourth window",20%
B4,number of beating colonies,R1 ES cells [1],lower number of beating colonies
same,effect on cardiac specification (αMHC staining at day 10),R1 mESCs,negative effects
same,expression of cardiac specific markers,R1 ES cells [2],opposite effect
